In US12435044B2, “Pyridazinone herbicides and pyridazinone intermediates used to prepare a herbicide” (FMC Corporation, priority 2018, dated 2025):

Legend:
Format in all cases: in vivo
[1] = system: nutsedge, yellow (Cyperus esculentus); assay: Test E pre-/postemergence greenhouse test; conditions: Preemergence
From the text: (§1) Seeds of plant species selected from corn (Zea mays), soybean (Glycine max), velvetleaf (Abutilon theophrasti), lambsquarters (Chenopodium album), poinsettia, wild (Euphorbia heterophylla), pigweed, palmer (Amaranthus palmeri), waterhemp (common waterhemp, Amaranthus rudis), surinam grass (Brachiaria decumbens), crabgrass, large (Digitaria sanguinalis), crabgrass, Brazil (Digitaria horizontalis), panicum, fall (Panicum dichotomiflorum), foxtail, giant (Setaria faberii), foxtail, green (Setaria viridis), goosegrass (Eleusine indica), johnsongrass (Sorghum halepense), ragweed (common ragweed, Ambrosia elatior), barnyardgrass (Echinochloa crus-galli), sandbur (southern sandbur, Cenchrus echinatus), arrowleaf sida (Sida rhombifolia), ryegrass, Italian (Lolium multiflorum), dayflower, VA (Virginia (VA) dayflower, Commelina virginica), field bindweed (Convolvulus arvensis), morningglory (Ipomoea coccinea), horseweed (Conyza canadensis), kochia (Kochia scoparia), nutsedge, yellow (Cyperus esculentus) and hairy beggarticks (Bidenspilosa), were planted into a silt loam soil and treated preemergence with test chemicals formulated in a non-phytotoxic solvent mixture which included a surfactant.
(§2) At the same time, plants selected from these crop and weed species and also waterhemp_RES1, (ALS & Triazine resistant common waterhemp, Amaranthus rudis), and waterhemp_RES2, (ALS & HPPD resistant common waterhemp, Amaranthus rudis) were planted in pots containing Redi-Earth® planting medium (Scotts Company, 14111 Scottslawn Road, Marysville, Ohio 43041) comprising spaghnum peat moss, vermiculite, wetting agent and starter nutrients were treated with postemergence applications of test chemicals formulated in the same manner. Plants ranged in height from 2 to 18 cm for postemergence treatments (1- to 4-leaf stage). Treated plants and controls were maintained in a greenhouse for 14 to 21 d, after which time all species were compared to controls and visually evaluated. Plant response ratings, summarized in Table E, are based on a scale of 0 to 100 where 0 is no effect and 100 is complete control. A dash (-) response means no test result.

[2] = system: poinsettia, wild (Euphorbia heterophylla); assay: Test E pre-/postemergence greenhouse test
From the text: as §1, §2

[3] = system: crabgrass, Brazil (Digitaria horizontalis); assay: Test E pre-/postemergence greenhouse test
From the text: as §1, §2

[4] = system: lambsquarters (Chenopodium album); assay: Test E pre-/postemergence greenhouse test; conditions: Preemergence
From the text: as §1, §2

[5] = system: morningglory (Ipomoea coccinea); assay: Test E pre-/postemergence greenhouse test; conditions: Preemergence
From the text: as §1, §2

kochia (Kochia scoparia) = assay: Test E pre-/postemergence greenhouse test
From the text: as §1, §2

[6] = system: hairy beggarticks (Bidenspilosa); assay: Test E pre-/postemergence greenhouse test
From the text: as §1, §2

[7] = system: goosegrass (Eleusine indica); assay: Test E pre-/postemergence greenhouse test; conditions: Preemergence
From the text: as §1, §2

[8] = system: foxtail, green (Setaria viridis); assay: Test E pre-/postemergence greenhouse test; conditions: Preemergence
From the text: as §1, §2

[9] = system: dayflower, VA (Virginia (VA) dayflower, Commelina virginica); assay: Test E pre-/postemergence greenhouse test
From the text: as §1, §2

[10] = system: palmer amaranth (AMAPA; Amaranthus palmeri); assay: Test K pre-/postemergence, mixtures of Cpd. No. 20 with metribuzin or rimsulfuron
From the text: This test evaluated the effect of mixtures of Cpd. No. 20 with metribuzin or rimsulfuron on several plant species. Seeds of plant species selected from corn (ZEAMD; Zea mays, cv. ‘Pioneer 1184’), soybean (GLXMA; Glycine max, cv. Pioneer 35T58), giant foxtail (SETFA; Setaria faberi), palmer amaranth (AMAPA; Amaranthus palmeri), common waterhemp (AMATU; Amaranthus rudis), mare's tail (ERICA; Conyza canadensis), and common ragweed (AMBEL; Ambrosia artemisiifolia) were planted in pots containing Tama Silt Loam soil and treated preemergence with a directed soil spray using test chemicals formulated in a non-phytotoxic solvent mixture which included a surfactant.
At the same time, plants selected from these crop and weed species were planted in pots containing Redi-Earth® planting medium (Scotts Company, 14111 Scottslawn Road, Marysville, Ohio 43041) comprising spaghnum peat moss, vermiculite, wetting agent and starter nutrients and treated postemergence with test chemicals formulated in the same manner. Plants ranged in height from 2 to 10 cm and were in the one- to two-leaf stage for the postemergence treatment. Treated plants and untreated controls were maintained in a greenhouse for approximately 14-21 d, after which time all treated plants were compared to untreated controls and visually evaluated for injury. Plant response ratings, summarized in Tables K1 to K4, are based on a 0 to 100 scale where 0 is no effect and 100 is complete control. A dash (-) response means no test result. Test results are presented as a mean of 4 reps.

`Cc1ccc2ccc(C)c(-c3c(O)c(Cl)nn(C)c3=O)c2c1` [Cpd. No. 20, 6-chloro-4-(2,7-dimethyl-1-naphthalenyl)-5-hydroxy-2-methyl-3(2H)-pyridazinone] was tested, and the “Plant response rating, Nutsedge, Yellow” value ([1]; 16 g ai/ha) was 10, the “Plant response rating, Nutsedge, Yellow” value ([1]; 31 g ai/ha) was 15 and the “Plant response rating, Nutsedge, Yellow” value ([1]; 62 g ai/ha) was 75. For the same compound, the “Plant response rating, Nutsedge, Yellow” value ([1]; 125 g ai/ha) was 75, the “Plant response rating, Poinsettia, Wild” value ([2]; Postemergence, 16 g ai/ha) was 20 and the “Plant response rating, Poinsettia, Wild” value ([2]; Postemergence, 31 g ai/ha) was 50. For the same compound, the “Plant response rating, Poinsettia, Wild” value ([2]; Postemergence, 62 g ai/ha) was 40, the “Plant response rating, Poinsettia, Wild” value ([2]; Postemergence, 125 g ai/ha) was 50 and the “Plant response rating, Poinsettia, Wild” value ([2]; Preemergence, 16 g ai/ha) was 0. For the same compound, the “Plant response rating, Poinsettia, Wild” value ([2]; Preemergence, 31 g ai/ha) was 0, the “Plant response rating, Poinsettia, Wild” value ([2]; Preemergence, 62 g ai/ha) was 0 and the “Plant response rating, Poinsettia, Wild” value ([2]; Preemergence, 125 g ai/ha) was 0. For the same compound, the “Plant response rating, Crabgrass, Brazil” value ([3]; Postemergence, 16 g ai/ha) was 20, the “Plant response rating, Crabgrass, Brazil” value ([3]; Postemergence, 31 g ai/ha) was 40 and the “Plant response rating, Crabgrass, Brazil” value ([3]; Postemergence, 62 g ai/ha) was 60. For the same compound, the “Plant response rating, Crabgrass, Brazil” value ([3]; Postemergence, 125 g ai/ha) was 85, the “Plant response rating, Crabgrass, Brazil” value ([3]; Preemergence, 16 g ai/ha) was 75 and the “Plant response rating, Crabgrass, Brazil” value ([3]; Preemergence, 31 g ai/ha) was 90. The “Plant response rating, Crabgrass, Brazil” value ([3]; Preemergence, 62 g ai/ha) was 100, the “Plant response rating, Crabgrass, Brazil” value ([3]; Preemergence, 125 g ai/ha) was 100 and the “Plant response rating, Lambsquarters” value ([4]; 16 g ai/ha) was 80. For the same compound, the “Plant response rating, Lambsquarters” value ([4]; 31 g ai/ha) was 95, the “Plant response rating, Lambsquarters” value ([4]; 62 g ai/ha) was 98 and the “Plant response rating, Lambsquarters” value ([4]; 125 g ai/ha) was 100. For the same compound, the “Plant response rating, Morningglory” value ([5]; 16 g ai/ha) was 10, the “Plant response rating, Morningglory” value ([5]; 31 g ai/ha) was 20 and the “Plant response rating, Morningglory” value ([5]; 62 g ai/ha) was 60. The “Plant response rating, Morningglory” value ([5]; 125 g ai/ha) was 100, the “Plant response rating, Kochia” value (kochia (Kochia scoparia); Postemergence, 16 g ai/ha) was 80 and the “Plant response rating, Kochia” value (kochia (Kochia scoparia); Postemergence, 31 g ai/ha) was 75. For the same compound, the “Plant response rating, Kochia” value (kochia (Kochia scoparia); Postemergence, 62 g ai/ha) was 80, the “Plant response rating, Kochia” value (kochia (Kochia scoparia); Postemergence, 125 g ai/ha) was 90 and the “Plant response rating, Kochia” value (kochia (Kochia scoparia); Preemergence, 16 g ai/ha) was 0. The “Plant response rating, Kochia” value (kochia (Kochia scoparia); Preemergence, 31 g ai/ha) was 50, the “Plant response rating, Kochia” value (kochia (Kochia scoparia); Preemergence, 62 g ai/ha) was 70 and the “Plant response rating, Kochia” value (kochia (Kochia scoparia); Preemergence, 125 g ai/ha) was 85. For the same compound, the “Plant response rating, Beggarticks” value ([6]; Postemergence, 16 g ai/ha) was 90, the “Plant response rating, Beggarticks” value ([6]; Postemergence, 31 g ai/ha) was 95 and the “Plant response rating, Beggarticks” value ([6]; Postemergence, 62 g ai/ha) was 95. For the same compound, the “Plant response rating, Beggarticks” value ([6]; Postemergence, 125 g ai/ha) was 100, the “Plant response rating, Beggarticks” value ([6]; Preemergence, 16 g ai/ha) was 20 and the “Plant response rating, Beggarticks” value ([6]; Preemergence, 31 g ai/ha) was 90. The “Plant response rating, Beggarticks” value ([6]; Preemergence, 62 g ai/ha) was 95, the “Plant response rating, Beggarticks” value ([6]; Preemergence, 125 g ai/ha) was 100 and the “Plant response rating, Goosegrass” value ([7]; 16 g ai/ha) was 0. For the same compound, the “Plant response rating, Goosegrass” value ([7]; 31 g ai/ha) was 0, the “Plant response rating, Goosegrass” value ([7]; 62 g ai/ha) was 30 and the “Plant response rating, Goosegrass” value ([7]; 125 g ai/ha) was 75. For the same compound, the “Plant response rating, Foxtail, Green” value ([8]; 16 g ai/ha) was 35, the “Plant response rating, Foxtail, Green” value ([8]; 31 g ai/ha) was 80 and the “Plant response rating, Foxtail, Green” value ([8]; 62 g ai/ha) was 100. For the same compound, the “Plant response rating, Foxtail, Green” value ([8]; 125 g ai/ha) was 100, the “Plant response rating, Dayflower, VA” value ([9]; Postemergence, 16 g ai/ha) was 30 and the “Plant response rating, Dayflower, VA” value ([9]; Postemergence, 31 g ai/ha) was 50. For the same compound, the “Plant response rating, Dayflower, VA” value ([9]; Postemergence, 62 g ai/ha) was 60, the “Plant response rating, Dayflower, VA” value ([9]; Postemergence, 125 g ai/ha) was 70 and the “Plant response rating, Dayflower, VA” value ([9]; Preemergence, 16 g ai/ha) was 0. For the same compound, the “Plant response rating, Dayflower, VA” value ([9]; Preemergence, 31 g ai/ha) was 0, the “Plant response rating, Dayflower, VA” value ([9]; Preemergence, 62 g ai/ha) was 0 and the “Plant response rating, Dayflower, VA” value ([9]; Preemergence, 125 g ai/ha) was 5. The “AMAPA plant response rating, 0 to 100 scale” value (“AMAPA plant response rating” for short) ([10]; postemergence, 8 g a.i./ha) was 28, the “AMAPA plant response rating” value ([10]; postemergence, 16 g a.i./ha) was 38 and the “AMAPA plant response rating” value ([10]; postemergence, 31 g a.i./ha) was 33. The “AMAPA plant response rating” value ([10]; postemergence, 62 g a.i./ha) was 60, the “AMAPA plant response rating” value ([10]; preemergence, 8 g a.i./ha) was 0 and the “AMAPA plant response rating” value ([10]; preemergence, 16 g a.i./ha) was 26. For the same compound, the “AMAPA plant response rating” value ([10]; preemergence, 31 g a.i./ha) was 50 and the “AMAPA plant response rating” value ([10]; preemergence, 62 g a.i./ha) was 45.
